US20040019080A1, “Prevention and treatment of migraine and other recurrent headaches using leukotriene LTD4 receptor blocker drugs” (priority 1998, published 2004)
“Also recorded” adds a separate entry of the source. Where two headings read alike, the source gives them in different places.

What was measured:
asthma patients [1] = details: cited from earlier work
asthma patients [2] = details: cited from earlier work; for safety and tolerability in chronic use: used every day over a continuous period of years
[3] = tested on: patients who suffered from migraine without aura; assay: Open-label clinical trial of daily montelukast in long-term migraine sufferers
patients with migraines = assay: Post-publication and unsolicited patient/physician reports, chronic and emergent migraine treatment; format: in vivo, human; details: unsolicited letters, comments, website posting
Description: The Applicant herein (Sheftell) initially published their leukotriene-migraine findings in abstract form and as a poster session in mid-1999, at a conference of physicians who specialize in treating headaches. That presentation was summarized shortly thereafter in Family Practice News, a newsletter for physicians, and it was followed in February 2000 by a full article in a refereed journal (Sheftell et al, “Montelukast in the prophylaxis of migraine: “potential role for leukotriene modifiers,” Headache 40: 158-63 (2000)).

LTD4 receptors = biological target: T1, LTD4 receptors (Homo sapiens, UniProt Q9Y271); details: cited from earlier work
T1 sequence (Q9Y271 1-337): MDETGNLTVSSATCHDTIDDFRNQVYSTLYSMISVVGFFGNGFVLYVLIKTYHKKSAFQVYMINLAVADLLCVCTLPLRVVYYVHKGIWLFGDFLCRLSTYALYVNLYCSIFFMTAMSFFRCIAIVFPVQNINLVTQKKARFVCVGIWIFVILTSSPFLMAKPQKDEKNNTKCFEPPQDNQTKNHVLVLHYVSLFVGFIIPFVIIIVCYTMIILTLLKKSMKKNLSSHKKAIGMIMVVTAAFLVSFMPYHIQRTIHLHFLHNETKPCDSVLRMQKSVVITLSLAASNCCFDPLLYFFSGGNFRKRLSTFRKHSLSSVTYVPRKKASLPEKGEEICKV

LTE4 receptors = details: cited from earlier work
LTC4 receptors = details: cited from earlier work

SMILES	asthma patients reporting headaches (asthma patients [1]; nearly 2000 asthma patients tested) [%]	safety and tolerability in chronic use (asthma patients [2])	adverse events reported by patients ([3]; 3-month treatment, 17 patients)	patients reporting a decrease in the number of moderate headaches ([3]; all reporting patients) [%]	number of mild headaches reported during treatment ([3]; mild category, baseline 1.53, mean per month (FIG. 2))	mean number of moderate attacks per month during treatment ([3]; moderate category, baseline 5.5, not statistically significant) [attacks per month]	patients showing a greater than 60% reduction in the frequency of severe attacks ([3]; montelukast 10 mg tablets daily, 3-month treatment vs 2-month baseline, 17 patients) [%]	patients with reduction in frequency of severe attacks after dose escalation ([3]; of 4 patients escalated from 10 mg once daily to 10 mg twice daily) [patients]	patients with a 33% or greater reduction in the frequency of severe attacks ([3]; of the remaining 15 patients) [patients]	mean number of severe attacks per month during treatment ([3]; severe category, baseline 2.78, p<0.025) [attacks per month]	reported outcome of chronic daily use for migraines (patients with migraines)	asthma patients reporting headaches (asthma patients [1]; more than 4000 asthma patients tested) [%]	blocking / activity at LTD4 receptors (LTD4 receptors)	blocking / activity at LTE4 receptors (LTE4 receptors)	blocking of LTC4 receptors (LTC4 receptors)	time of daily oral ingestion before noticeable effects in reducing the frequency of asthma attacks (asthma patients [2]; tablets, daily oral)	users reporting headaches as unwanted side effect (asthma patients [1]; zileuton 4 times daily at 600 mg, placebo 24.0%) [%]
CC(C)(O)c1ccccc1CC[C@@H](SCC1(CC(=O)O)CC1)c1cccc(/C=C/c2ccc3ccc(Cl)cc3n2)c1 [montelukast]	18.4	generally safe, well-tolerated, and free of serious side effects	no adverse events were reported; also recorded: None of the patients reported any adverse effects	70	2.02	4.68	41	4	13	1.31	–	–	–	–	–	–	–
COc1cc(C(=O)NS(=O)(=O)c2ccccc2C)ccc1Cc1cn(C)c2ccc(NC(=O)OC3CCCC3)cc12 [zafirlukast]	–	generally safe, well-tolerated, and free of serious side effects	–	–	–	–	–	–	–	–	benefitted more from that treatment than from any other treatment	12.9	appear to block; also recorded: some level of activity	appear to block; also recorded: some level of activity	do not appear to block	about 4 weeks	–
CC(c1cc2ccccc2s1)N(O)C(N)=O (stereo not drawn) [zileuton]	–	–	–	–	–	–	–	–	–	–	–	–	–	–	–	–	24.6
